Laboratory results reported in ChEMBL document CHEMBL1201862, “PubChem BioAssay data set” (2004).
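Protocol summary: plate cells (96-well), add compound at 5 concentrations, incubate 48 h, interpolate endpoints linearly. GI50: concentration for 50% inhibition of growth.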 Calls of active or inactive are those of the source. Rule as the data show it: active = GI50 up to about 1.1 µM and inactive = higher. Where a SMILES comes first, the peptide text is derived from it. [ ]: non-standard residue; d: D form. The star is where a group is joined. Cbz = O=C(OCc1ccccc1)*; Aib = CC(C)(N)C(=O)O

Assays:
Assay in all cases: NCI-60 cell line screen, 48 h
[1] = tested on: SW-620
[2] = tested on: NCI-H226
[3] = tested on: 786-0
[4] = tested on: A498
[5] = tested on: MDA-N
[6] = tested on: PC-3
[7] = tested on: SNB-19
[8] = tested on: SR
[9] = tested on: U-251
[10] = tested on: M14
[11] = tested on: RPMI-8226
[12] = tested on: Hs-578T
[13] = tested on: SK-MEL-28
[14] = tested on: KM12
[15] = tested on: ACHN
[16] = tested on: Malme-3M
[17] = tested on: SF-539
[18] = tested on: NCI-H460
[19] = tested on: RXF 393

Row | Structure (SMILES) | GI50 [1] | GI50 [2] | GI50 [3] | GI50 [4] | GI50 [5] | GI50 [6] | GI50 [7] | GI50 [8] | GI50 [9] | GI50 [10] | GI50 [11] | GI50 [12] | GI50 [13] | GI50 [14] | GI50 [15] | GI50 [16] | GI50 [17] | GI50 [18] | GI50 [19]
1 | CCC(C)C(Nc1c2ccccc2nc2c(C(=O)NCCN(C)C)cccc12)C(=O)O (stereo not given) | 9.16 µM (inactive) | 6.92 µM (inactive) | 9.89 µM (inactive) | 16.9 µM (inactive) | 17.2 µM (inactive) | 14 µM (inactive) | 8.28 µM (inactive) | 46.6 µM (inactive) | 25.2 µM (inactive) | 16.2 µM (inactive) | 28.8 µM (inactive) | 18.4 µM (inactive) | 23.6 µM (inactive) | 14.8 µM (inactive) | 7.94 µM (inactive) | 12.3 µM (inactive) | – | – | –
2 | O=C(Nc1cccc(F)c1)c1cc2ccc(O)cc2o/c1=N\c1ccccc1F | 4.7 µM (inactive) | – | 4.99 µM (inactive) | 16.1 µM (inactive) | 4.82 µM (inactive) | 8.85 µM (inactive) | 5.31 µM (inactive) | 2.47 µM (inactive) | 3.21 µM (inactive) | 5.32 µM (inactive) | 1.69 µM (inactive) | 1.57 µM (inactive) | 4.05 µM (inactive) | 3.75 µM (inactive) | 3.34 µM (inactive) | 4.3 µM (inactive) | 7.43 µM (inactive) | 3.15 µM (inactive) | –
3 | CC(C)(C)n1c(=O)[nH]c(=O)n1C(C)(C)C | > 100 µM (inactive) | > 100 µM (inactive) | > 100 µM (inactive) | > 100 µM (inactive) | > 100 µM (inactive) | > 100 µM (inactive) | > 100 µM (inactive) | > 100 µM (inactive) | > 100 µM (inactive) | > 100 µM (inactive) | – | > 100 µM (inactive) | > 100 µM (inactive) | > 100 µM (inactive) | > 100 µM (inactive) | > 100 µM (inactive) | > 100 µM (inactive) | > 100 µM (inactive) | > 100 µM (inactive)
4 | S=C1SC(c2ccc(Cl)cc2)(c2ccc(Cl)cc2)c2ccccc21 | 68.7 µM (inactive) | 51.2 µM (inactive) | > 100 µM (inactive) | 81.8 µM (inactive) | 62.2 µM (inactive) | 58.6 µM (inactive) | > 100 µM (inactive) | 20.4 µM (inactive) | > 100 µM (inactive) | 79.4 µM (inactive) | – | > 100 µM (inactive) | 67.8 µM (inactive) | 40.3 µM (inactive) | > 100 µM (inactive) | > 100 µM (inactive) | > 100 µM (inactive) | > 100 µM (inactive) | 56.9 µM (inactive)
5 | Cc1ccc(NC(=O)C23CC4CC(CC(C4)C2)C3)c(C(=O)NNC(=O)c2ccc(Cl)cc2)c1 | 26.2 µM (inactive) | 17 µM (inactive) | 20.2 µM (inactive) | – | 20.2 µM (inactive) | 23.3 µM (inactive) | 1.41 µM (inactive) | 13.7 µM (inactive) | 17.2 µM (inactive) | 31.8 µM (inactive) | 19 µM (inactive) | 4.3 µM (inactive) | – | 21.3 µM (inactive) | 17.5 µM (inactive) | 18.3 µM (inactive) | 18.1 µM (inactive) | 22 µM (inactive) | 15 µM (inactive)
6 | CC(C)(C)[Si](C)(C)OCC1OC(n2ccc(N)nc2=O)C(O[Si](C)(C)C(C)(C)C)C1O[Si](C)(C)C(C)(C)C (stereo not given) | 1.58 µM (inactive) | 1.36 µM (inactive) | 1.59 µM (inactive) | – | 3.89 µM (inactive) | 1.74 µM (inactive) | 3.24 µM (inactive) | 2.73 µM (inactive) | – | 1.8 µM (inactive) | – | 2.55 µM (inactive) | – | – | 1.82 µM (inactive) | 1.8 µM (inactive) | – | 1.9 µM (inactive) | –
7 | CCCCCCCCCCCCCCCCOC[C@@H](COC(c1ccccc1)(c1ccccc1)c1ccccc1)O[PH](=S)OC (stereo not given in full) | 16.1 µM (inactive) | 19.1 µM (inactive) | 6.49 µM (inactive) | 11.5 µM (inactive) | 2.24 µM (inactive) | 5.32 µM (inactive) | 4.79 µM (inactive) | 2.33 µM (inactive) | 4.04 µM (inactive) | 3.3 µM (inactive) | 3.4 µM (inactive) | 15.5 µM (inactive) | – | 4.3 µM (inactive) | 15.7 µM (inactive) | – | 2.82 µM (inactive) | 1.6 µM (inactive) | 7.53 µM (inactive)
8 | CCOC(=O)CC1(N)CC2c3ccccc3OC(=O)C2C(=O)N1 (stereo not given) | > 100 µM (inactive) | > 100 µM (inactive) | > 100 µM (inactive) | > 100 µM (inactive) | > 100 µM (inactive) | > 100 µM (inactive) | > 100 µM (inactive) | > 100 µM (inactive) | > 100 µM (inactive) | > 100 µM (inactive) | > 100 µM (inactive) | > 100 µM (inactive) | > 100 µM (inactive) | > 100 µM (inactive) | > 100 µM (inactive) | > 100 µM (inactive) | – | > 100 µM (inactive) | > 100 µM (inactive)
9 | COc1cc2c(cc1OC)C(=O)N(c1ccc(O)cc1)C2 | > 100 µM (inactive) | > 100 µM (inactive) | > 100 µM (inactive) | > 100 µM (inactive) | > 100 µM (inactive) | > 100 µM (inactive) | > 100 µM (inactive) | > 100 µM (inactive) | > 100 µM (inactive) | > 100 µM (inactive) | > 100 µM (inactive) | > 100 µM (inactive) | > 100 µM (inactive) | – | > 100 µM (inactive) | > 100 µM (inactive) | > 100 µM (inactive) | > 100 µM (inactive) | > 100 µM (inactive)
10 | CC[C@H](C)[C@H](NC(=O)N(CCC#N)CCN(CCN(C(=O)N[C@@H](Cc1ccccc1)C(=O)OC)c1ccccc1)C(=O)N[C@H](C(=O)OC)C(C)C)C(=O)OC | 21.4 µM (inactive) | 21.5 µM (inactive) | 4.68 µM (inactive) | 19.6 µM (inactive) | 16.5 µM (inactive) | 16.1 µM (inactive) | 15.2 µM (inactive) | – | 16.2 µM (inactive) | 20.5 µM (inactive) | 10.7 µM (inactive) | 23.7 µM (inactive) | 15 µM (inactive) | 20.9 µM (inactive) | 13.8 µM (inactive) | 17.2 µM (inactive) | 23.6 µM (inactive) | – | 14.2 µM (inactive)
11 | c1cncc(CC2(c3cc4ccccc4[nH]3)OCCO2)c1 | > 100 µM (inactive) | > 100 µM (inactive) | > 100 µM (inactive) | > 100 µM (inactive) | > 100 µM (inactive) | > 100 µM (inactive) | > 100 µM (inactive) | 85.5 µM (inactive) | > 100 µM (inactive) | – | – | 96.8 µM (inactive) | > 100 µM (inactive) | > 100 µM (inactive) | > 100 µM (inactive) | > 100 µM (inactive) | 58.3 µM (inactive) | > 100 µM (inactive) | –
12 | Oc1ccc2ccccc2c1/N=N\c1cccc2ccccc12 | > 100 µM (inactive) | > 100 µM (inactive) | > 100 µM (inactive) | – | > 100 µM (inactive) | > 100 µM (inactive) | > 100 µM (inactive) | < 0.01 µM (active) | > 100 µM (inactive) | 95.9 µM (inactive) | > 100 µM (inactive) | > 100 µM (inactive) | > 100 µM (inactive) | > 100 µM (inactive) | > 100 µM (inactive) | – | – | – | > 100 µM (inactive)
13 | CCOC(=O)c1cc2cc(N(C(C)=O)C(C)=O)ccc2s1 | 36.2 µM (inactive) | 20.4 µM (inactive) | 27.2 µM (inactive) | 13.8 µM (inactive) | 29.2 µM (inactive) | 20.5 µM (inactive) | 36.9 µM (inactive) | – | 20.7 µM (inactive) | 25.1 µM (inactive) | 19.6 µM (inactive) | 16.9 µM (inactive) | 30.8 µM (inactive) | 40.5 µM (inactive) | 25.2 µM (inactive) | 16.6 µM (inactive) | 27 µM (inactive) | 38.5 µM (inactive) | 13.5 µM (inactive)
14 | CC(C)(NC(=O)C(C)(C)NC(=O)OCc1ccccc1)C(=O)O (Cbz-[Aib]-[Aib]-OH) | > 100 µM (inactive) | > 100 µM (inactive) | > 100 µM (inactive) | > 100 µM (inactive) | > 100 µM (inactive) | > 100 µM (inactive) | > 100 µM (inactive) | > 100 µM (inactive) | > 100 µM (inactive) | > 100 µM (inactive) | > 100 µM (inactive) | > 100 µM (inactive) | > 100 µM (inactive) | > 100 µM (inactive) | > 100 µM (inactive) | > 100 µM (inactive) | > 100 µM (inactive) | > 100 µM (inactive) | –
15 | O=C(/C=C/c1cccc(Br)c1)c1cccs1 | 9.35 µM (inactive) | 17.9 µM (inactive) | 15.8 µM (inactive) | 16.5 µM (inactive) | 10.3 µM (inactive) | 17.5 µM (inactive) | 14.2 µM (inactive) | 10.1 µM (inactive) | 13.9 µM (inactive) | 25.1 µM (inactive) | 2.09 µM (inactive) | 27.9 µM (inactive) | 18.1 µM (inactive) | 13.7 µM (inactive) | 20.1 µM (inactive) | 22.1 µM (inactive) | 18 µM (inactive) | 16.2 µM (inactive) | –
16 | CCOC(=O)c1c[nH]c(C(=O)OCC)c1-c1cccn1-c1ccccc1 | 35.2 µM (inactive) | 15.1 µM (inactive) | 22.8 µM (inactive) | 27 µM (inactive) | 31.7 µM (inactive) | 18.7 µM (inactive) | 31.7 µM (inactive) | – | 19.2 µM (inactive) | 20.2 µM (inactive) | 14.2 µM (inactive) | 9.64 µM (inactive) | 32.4 µM (inactive) | 10.1 µM (inactive) | 26.2 µM (inactive) | 10.8 µM (inactive) | – | 23 µM (inactive) | 16 µM (inactive)
